Patent US7592160B2, “Processes for producing isomaltose and isomaltitol and use thereof” (Kabushiki Kaisha Hayashibara Seibutsu Kagaku Kenkyujo, priority 2001, dated 2009)

Tests used:
[1] = test system: α-isomaltosylglucosaccharide-forming enzyme; assay: Influence of metal ions on α-isomaltosylglucosaccharide-forming enzyme activity (N75 strain); format: biochemical, Bacillus globisporus N75 strain
Procedure: (§1) About 20 L of a fresh preparation of the same liquid culture medium as used in the above seed culture were placed in a 30-L fermentor, sterilized by heating, and then cooled to 27° C. and inoculated with 1% (v/v) of the seed culture, followed by culturing at 27° C. and pH 6.0 to 8.0 for 48 hours under aeration-agitation conditions. […] These activities were assayed as follows: The activity of α-isomaltosylglucosaccharide-forming enzyme was assayed by dissolving maltotriose in 100 mM acetate buffer (pH 6.0) to give a concentration of 2% (w/v) for a substrate solution, adding a 0.5 ml of an enzyme solution to a 0.5 ml of the substrate solution, enzymatically reacting the mixture solution at 35° C. for 60 min, suspending the enzymatic reaction by boiling the solution for 10 min, and quantifying maltose, among the isomaltosyl maltose and maltose formed mainly in the reaction mixture, on HPLC disclosed in Experiment 1. One unit activity of α-isomaltosylglucosaccharide-forming enzyme is defined as the enzyme amount that forms one micromole of maltose per minute under the above enzymatic reaction conditions. Throughout the specification, the enzymatic activity of α-isomaltosylglucosaccharide-forming enzyme means the unit(s) assayed as above.
(§2) The influence of metal ions on the activity of α-isomaltosylglucosaccharide-forming enzyme was examined in the presence of 1 mM of each metal-ion according to the assay for its enzyme activity.

[2] = test system: α-isomaltosylglucosaccharide-forming enzyme; assay: Influence of metal ions on α-isomaltosylglucosaccharide-forming enzyme activity (C11 strain); format: biochemical, Bacillus globisporus C11 strain
[3] = test system: α-isomaltosylglucosaccharide-forming enzyme; assay: Influence of metal ions on α-isomaltosylglucosaccharide-forming enzyme activity (C9 strain); format: biochemical, Bacillus globisporus C9 strain
Procedure: as §1, §2

[4] = test system: α-isomaltosyl-transferring enzyme; assay: Influence of metal ions on α-isomaltosyl-transferring enzyme activity (C9 strain); format: biochemical, Bacillus globisporus C9 strain; settings: in the presence of 1 mM of each metal-ion; None = 100
Procedure: (§3) The activity of α-isomaltosyl-transferring enzyme was assayed by dissolving panose in 100 mM acetate buffer (pH 6.0) to give a concentration of 2% (w/v) for a substrate solution, adding a 0.5 ml of an enzyme solution to 0.5 ml of the substrate solution, enzymatically reacting the mixture solution at 35° C. for 30 min, suspending the enzymatic reaction by boiling the solution for 10 min, and quantifying glucose, among the cyclotetrasaccharide and glucose formed mainly in the reaction mixture, by the glucose oxidase method. One unit activity of α-isomaltosyl-transferring enzyme is defined as the enzyme amount that forms one micromole of glucose per minute under the above enzymatic reaction conditions. Throughout the specification, the enzymatic activity of α-isomaltosyl-transferring enzyme means the unit(s) assayed as above.
(§4) The influence of metal ions on the activity of α-isomaltosyl-transferring enzyme was examined in the presence of 1 mM of each metal-ion according to the assay for its enzyme activity.

[5] = test system: α-isomaltosyl-transferring enzyme; assay: Influence of metal ions on α-isomaltosyl-transferring enzyme activity (S1 strain); format: biochemical, Arthrobacter ramosus S1 strain; settings: in the presence of 1 mM of each metal-ion; None = 100
Procedure: as §3, §4

[6] = test system: α-isomaltosylglucosaccharide-forming enzyme; assay: Influence of metal ions on α-isomaltosylglucosaccharide-forming enzyme activity (A19 strain); format: biochemical, Arthrobacter globiformis A19 strain; settings: in the presence of 1 mM of each metal-ion; None = 100
[7] = test system: α-isomaltosyl-transferring enzyme; assay: Influence of metal ions on α-isomaltosyl-transferring enzyme activity (N75 strain); format: biochemical, Bacillus globisporus N75 strain; settings: in the presence of 1 mM of each metal-ion; None = 100
Procedure: as §3
The influence of temperature and pH on the activity of α-isomaltosyl-transferring enzyme was examined in accordance with the assay for its enzyme activity. […] The thermal stability of the enzyme was determined by incubating the testing enzyme solutions in the form of 20 mM acetate buffer (pH 6.0) at prescribed temperatures for 60 min, cooling the resulting enzyme solutions with water, and assaying the remaining enzyme activity of each solution. The pH stability of the enzyme was determined by keeping the testing enzyme solutions in the from of 50 mM buffers having prescribed pHs at 4° C. for 24 hours, adjusting the pH of each solution to 6.0, and assaying the remaining enzyme activity of each solution. […] The influence of metal ions on the activity of α-isomaltosyl-transferring enzyme was examined in the presence of 1 mM of each metal-ion according to the assay for its enzyme activity.

[8] = test system: α-isomaltosyl-transferring enzyme; assay: Influence of metal ions on α-isomaltosyl-transferring enzyme activity (C11 strain); format: biochemical, Bacillus globisporus C11 strain; settings: in the presence of 1 mM of each metal-ion; None = 100
Procedure: as §3, §4

[9] = test system: α-isomaltosylglucosaccharide-forming enzyme; assay: Action on saccharides as substrates (TLC), enzyme of N75 strain; format: biochemical, Bacillus globisporus N75 strain; parameters: key: −: it showed no change; +: it showed a slight reduction of the color spot of the substrate and the formation of other reaction product; ++: it showed a high reduction of the color spot of the substrate and the formation of other reaction product; +++: it showed a substantial disappearance of the substrate spot and the formation of other reaction product; settings: two units/g substrate, substrate 2% (w/v), 30° C., pH 6.0, 24 hours
Description: (§5) To examine the saccharides in the supernatant, they were separated by developing twice on silica gel thin-layer chromatography (abbreviated as “TLC” hereinafter) using, as a developer, a mixture solution of n-butanol, pyridine, and water (=6:4:1 by volume), and, as a thin-layer plate, “[…]™ 60”, an aluminum plate (20×20 cm) for TLC commercialized by Merck & Co., Inc., Rahway, USA. The coloration of the separated total sugars by the sulfuric acid-methanol method and that of the reducing saccharides by the diphenylamine-aniline method detected a non-reducing saccharide positive at an Rf value of about 0.31 on the former detection method but negative on the latter detection method.
(§6) It was tested whether any saccharides can be used as substrates for α-isomaltosylglucosaccharide-forming enzyme. For the purpose, a solution of maltose, maltotriose, maltotetraose, maltopentaose, maltohexaose, maltoheptaose, isomaltose, isomaltotriose, panose, isopanose, α,α-trehalose, kojibiose, nigerose, neotrehalose, cellobiose, gentibiose, maltitol, maltotriitol, lactose, sucrose, erlose, selaginose, maltosyl glucoside, or isomaltosyl glucoside was prepared.
(§7) To each of the above solutions was added two units/g substrate of a purified specimen of α-isomaltosylglucosaccharide-forming enzyme from either Bacillus globisporus C9 strain obtained by the method in Experiment 4-2, Bacillus globisporus C11 strain obtained by the method in Experiment 7-2, Bacillus globisporus N75 strain obtained by the method in Experiment 11-2, or Arthrobacter globiformis A19 strain obtained by the method in Experiment 15-2, and the resulting each solution was adjusted to give a substrate concentration of 2% (w/v) and incubated at 30° C. and pH 6.0 for 24 hours, except for using pH 8.4 for the enzyme from Arthrobacter globiformis A19 strain. The enzyme solutions before and after the enzymatic reactions were respectively analyzed on TLC disclosed in Experiment 1 to confirm whether the enzymes acted on these substrates.

[10] = test system: α-isomaltosylglucosaccharide-forming enzyme; assay: Action on saccharides as substrates (TLC), enzyme of C11 strain; format: biochemical, Bacillus globisporus C11 strain; parameters: key: −: it showed no change; +: it showed a slight reduction of the color spot of the substrate and the formation of other reaction product; ++: it showed a high reduction of the color spot of the substrate and the formation of other reaction product; +++: it showed a substantial disappearance of the substrate spot and the formation of other reaction product; settings: two units/g substrate, substrate 2% (w/v), 30° C., pH 6.0, 24 hours
Description: as §5, §6, §7

[11] = test system: α-isomaltosylglucosaccharide-forming enzyme; assay: Transfer-acceptor specificity, enzyme of A19 strain; format: biochemical, Arthrobacter globiformis A19 strain; settings: acceptor 1.6%, PINE-DEX #100 donor 4%, one unit/g donor, 30° C., pH 8.4, 24 hours
Outline: (§8)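 Acceptor saccharides at 1.6% with partial starch hydrolyzate donor at 4% and purified enzyme at 1 unit/g donor, d.s.b., 30 °C, 24 h, pH 6.0 (pH 8.4 for A19 enzyme). Transfer products of mono- and disaccharide acceptors analysed by GLC, of trisaccharide acceptors by HPLC with refractometer detection.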

[12] = test system: α-isomaltosylglucosaccharide-forming enzyme; assay: Transfer-acceptor specificity, enzyme of C9 strain; format: biochemical, Bacillus globisporus C9 strain; settings: acceptor 1.6%, PINE-DEX #100 donor 4%, one unit/g donor, 30° C., pH 6.0, 24 hours
Outline: as §8

[13] = test system: α-isomaltosylglucosaccharide-forming enzyme; assay: Action on saccharides as substrates (TLC), enzyme of A19 strain; format: biochemical, Arthrobacter globiformis A19 strain; parameters: key: −: it showed no change; +: it showed a slight reduction of the color spot of the substrate and the formation of other reaction product; ++: it showed a high reduction of the color spot of the substrate and the formation of other reaction product; +++: it showed a substantial disappearance of the substrate spot and the formation of other reaction product; settings: two units/g substrate, substrate 2% (w/v), 30° C., pH 8.4, 24 hours
Description: as §5, §6, §7

[14] = test system: α-isomaltosylglucosaccharide-forming enzyme; assay: Transfer-acceptor specificity, enzyme of C11 strain; format: biochemical, Bacillus globisporus C11 strain; settings: acceptor 1.6%, PINE-DEX #100 donor 4%, one unit/g donor, 30° C., pH 6.0, 24 hours
Outline: as §8

[15] = test system: α-isomaltosylglucosaccharide-forming enzyme; assay: Action on saccharides as substrates (TLC), enzyme of C9 strain; format: biochemical, Bacillus globisporus C9 strain; parameters: key: −: it showed no change; +: it showed a slight reduction of the color spot of the substrate and the formation of other reaction product; ++: it showed a high reduction of the color spot of the substrate and the formation of other reaction product; +++: it showed a substantial disappearance of the substrate spot and the formation of other reaction product; settings: two units/g substrate, substrate 2% (w/v), 30° C., pH 6.0, 24 hours
Description: as §5, §6, §7

[16] = test system: α-isomaltosylglucosaccharide-forming enzyme; assay: Transfer-acceptor specificity, enzyme of N75 strain; format: biochemical, Bacillus globisporus N75 strain; settings: acceptor 1.6%, PINE-DEX #100 donor 4%, one unit/g donor, 30° C., pH 6.0, 24 hours
Outline: as §8

[17] = in the presence of 1 mM of each metal-ion, None = 100

Structure (SMILES)	effect on the enzyme activity, in words ([1]; 1 mM, Table 13)	Relative activity (%) [1, 17] [%]	effect on the enzyme activity, in words ([2]; 1 mM, Table 7)	Relative activity (%) [2, 17] [%]	effect on the enzyme activity, in words ([3]; 1 mM, Table 3)	Relative activity (%) [3, 17] [%]	Relative activity (%) [4] [%]	Relative activity (%) [5] [%]	Relative activity (%) [6] [%]	Relative activity (%) [7] [%]	Relative activity (%) [8] [%]	Enzymatic action, Enzyme of N75 strain [9]	Enzymatic action, Enzyme of C11 strain [10]	Product of transferring reaction, Enzyme of A19 strain [11]	Product of transferring reaction, Enzyme of C9 strain [12]	Enzymatic action, Enzyme of A19 strain [13]	Product of transferring reaction, Enzyme of C11 strain [14]	Enzymatic action, Enzyme of C9 strain [15]	Product of transferring reaction, Enzyme of N75 strain [16]
[Mn+2] [Mn^2+]	activated	120	activated	142	activated	111	106												
[Al+3] [Al^3+]							103	93	37	94	89								
[Ni+2] [Ni^2+]							102	87	46	91	89								
OC[C@@H](O)[C@@H](O[C@H]1O[C@H](CO)[C@@H](O)[C@H](O)[C@H]1O)[C@H](O)[C@@H](O)CO [Maltitol, maltitol]												−	−	++ (a saccharide-transferred product was detected in an amount over ten percent through transfer reaction to acceptor)	++ (a saccharide-transferred product was detected in an amount over ten percent through transfer reaction to acceptor)	−	++ (a saccharide-transferred product was detected in an amount over ten percent through transfer reaction to acceptor)	−	++ (a saccharide-transferred product was detected in an amount over ten percent through transfer reaction to acceptor)
OC[C@H]1O[C@@H](O[C@H]2[C@H](O)[C@@H](O)C(O)O[C@@H]2CO)[C@H](O)[C@@H](O)[C@H]1O (some centres unmarked) [Lactose, lactose]												−	−	++ (a saccharide-transferred product was detected in an amount over ten percent through transfer reaction to acceptor)	++ (a saccharide-transferred product was detected in an amount over ten percent through transfer reaction to acceptor)	−	++ (a saccharide-transferred product was detected in an amount over ten percent through transfer reaction to acceptor)	−	++ (a saccharide-transferred product was detected in an amount over ten percent through transfer reaction to acceptor)
OC[C@H]1O[C@H](OC[C@H]2OC(O)[C@H](O)[C@@H](O)[C@@H]2O)[C@H](O)[C@@H](O)[C@@H]1O (some centres unmarked) [Isomaltose, isomaltose]												−	−	+ (a saccharide-transferred product was detected in an amount over one percent but less than 10% through transfer reaction to acceptor)	++ (a saccharide-transferred product was detected in an amount over ten percent through transfer reaction to acceptor)	−	++ (a saccharide-transferred product was detected in an amount over ten percent through transfer reaction to acceptor)	−	++ (a saccharide-transferred product was detected in an amount over ten percent through transfer reaction to acceptor)
